Experimental data: patent US20230017312A1, “CENTRALLY ACTIVE P38ALPHA INHIBITING COMPOUNDS” (Synovo GmbH, priority 2019, published 2023)

Assays:
IL-6 [1] = assay: LPS-stimulated IL-6 production, spleen; type: cell-based; details: compound 10 nM
TNFa [2] = assay: LPS-stimulated TNFa production, spleen; type: cell-based; details: compound 10 nM
IL-6 [3] = assay: LPS-stimulated IL-6 production, hBuffy Coat; type: cell-based, human; details: compound 1 nM
Procedure: (§1) The substances can be tested by mixing them with immune cells subject to stimulus and measuring the resulting inflammatory response. A standard assay involves the application of lipopolysaccharide (e.g. 10 μg/mL) to human blood derived immune cells and then detecting the concentration of cytokines (IL-6, TNFa) after 24 h. When tested in this way, the described compounds have the following effects as recorded in Table 2.

TNFa [4] = assay: LPS-stimulated TNFa production, hBuffy Coat; type: cell-based, human; details: compound 1 nM
Procedure: as §1

IL-6 [5] = assay: LPS-stimulated IL-6 production, BL6 Blood; type: cell-based; details: compound 100 nM
TNFa [6] = assay: LPS-stimulated TNFa production, BL6 Blood; type: cell-based; details: compound 100 nM

SMILES	Amount of cytokine produced as % control: IL_6 Spleen (100 ng LPS) 10 nM (IL-6 [1])	Amount of cytokine produced as % control: TNFa Spleen (100 ng LPS) 10 nM (TNFa [2])	Amount of cytokine produced as % control: IL-6 hBuffy Coat (100 ng LPS) 1 nM (IL-6 [3])	Amount of cytokine produced as % control: TNFa hBuffy Coat (100 ng LPS) 1 nM (TNFa [4])	Amount of cytokine produced as % control: IL-6 BL6 Blood (500 ng LPS) 100 nM (IL-6 [5])	Amount of cytokine produced as % control: TNFa BL6 Blood (500 ng LPS) 100 nM (TNFa [6])	melting point
C[S+]([O-])c1ccc(-c2nc(-c3ccncc3)c(-c3ccc(F)cc3)[nH]2)cc1 (stereo not shown) [SB203580]	10 % control	11 % control	61 % control	85 % control	22 % control	4 % control	
COC(=O)c1ccc2c(c1)C(=O)c1ccc(Nc3ccc(F)cc3F)cc1OC2 [Compound 15a, 3-((2,4-Difluorophenyl)amino)-11-oxo-6,11-dihydrobenzo[b,e]oxepin-9-carboxylmethylester]							162.7 °C
